This is an account of results in ChEMBL document CHEMBL5614464, “Geldanamycin, a Naturally Occurring Inhibitor of Hsp90 and a Lead Compound for Medicinal Chemistry” (J Med Chem, 2024).

The nature of experiment [1]: Inhibition of recombinant HSP90 (unknown origin). Further details: species or system Homo sapiens.
The next experiment has as its system SK-OV-3. In words: Antiproliferative activity against human SK-OV-3 cells assessed as reduction in cell viability incubated for 48 hrs by MTT assay. The class given is functional, cell-based. The following applies: SK-OV-3, 48 h.
For another experiment, the system named is PC-3. In words: Antiproliferative activity against human PC-3 cells assessed as reduction in cell viability incubated for 48 hrs by MTT assay. The class given is functional, cell-based. To be noted: PC-3, 48 h.

Structures are written as SMILES.

Take `CO[C@H]1/C=C\C=C(/C)C(=O)NC2=CC(=O)C(c3ccccc3)=C(C[C@@H](C)C[C@H](OC)[C@H](O)[C@@H](C)/C=C(\C)[C@@H]1OC(N)=O)C2=O`: the IC50 in experiment [1] turned out to be 1700 nM.

Take `COC1=C2C[C@@H](C)C[C@H](OC)[C@H](O)[C@@H](C)/C=C(\C)[C@H](OC(N)=O)[C@@H](OC)/C=C\C=C(/C)C(=O)NC(=CC1=O)C2=O` [GELDANAMYCIN]: the IC50 with SK-OV-3 and in the experiment with PC-3 was 580 nM in each case.
